# Values joined by “and” are separate entries in the source; they are usually repeats but may differ in a detail not shown here. Equal values may be shown once.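 These data come from cells grown in 96-well plates and exposed to compound for 48 hours at five concentrations. Here, GI50 denotes the concentration required for 50% inhibition of growth. TGI denotes the concentration required for complete inhibition of growth.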
# What was measured:
# Assay in all cases: NCI-60 cell line screen, 48 h
# BT-549 breast = tested on: BT-549 breast
# DU-145 prostate = tested on: DU-145 prostate
# HCC-2998 colon = tested on: HCC-2998 colon
# IGROV1 ovarian = tested on: IGROV1 ovarian
# MCF7 breast = tested on: MCF7 breast
# MOLT-4 leukemia = tested on: MOLT-4 leukemia
# NCI-H522 lung = tested on: NCI-H522 lung
# OVCAR-8 ovarian = tested on: OVCAR-8 ovarian
# RPMI-8226 leukemia = tested on: RPMI-8226 leukemia
# SK-MEL-28 melanoma = tested on: SK-MEL-28 melanoma
# SK-MEL-5 melanoma = tested on: SK-MEL-5 melanoma
# SK-OV-3 ovarian = tested on: SK-OV-3 ovarian
# SN12C renal = tested on: SN12C renal
# SNB-19 CNS = tested on: SNB-19 CNS
# SNB-75 CNS = tested on: SNB-75 CNS
# T-47D breast = tested on: T-47D breast
# NCI-H226 lung = tested on: NCI-H226 lung
# RXF 393 renal = tested on: RXF 393 renal
# UACC-257 melanoma = tested on: UACC-257 melanoma
Compound,TGI (BT-549 breast) [µM],TGI (DU-145 prostate) [µM],TGI (HCC-2998 colon) [µM],TGI (IGROV1 ovarian) [µM],TGI (MCF7 breast) [µM],TGI (MOLT-4 leukemia) [µM],TGI (NCI-H522 lung) [µM],TGI (OVCAR-8 ovarian) [µM],TGI (RPMI-8226 leukemia) [µM],TGI (SK-MEL-28 melanoma) [µM],TGI (SK-MEL-5 melanoma) [µM],TGI (SK-OV-3 ovarian) [µM],TGI (SN12C renal) [µM],TGI (SNB-19 CNS) [µM],TGI (SNB-75 CNS),TGI (T-47D breast) [µM],TGI (NCI-H226 lung) [µM],TGI (RXF 393 renal) [µM],TGI (UACC-257 melanoma) [µM],GI50 (SNB-75 CNS)
O=C(CN1CCCC1)Nc1ccc2sc3ccccc3c(=O)c2n1,70,> 100,39.8,66.5,> 100,15.6,36,52.5,63,39.7,53.4,58.7,> 100,> 100,60 µM,> 100,,,,
CC[C@]12C=CCN3CCC4(c5cc(N=Nc6ccc([N+](=O)[O-])cc6)c(OC)cc5N(C)[C@H]4[C@@](O)(C(=O)OC)[C@@H]1OC(C)=O)[C@@H]32 (some centres undefined),> 100,> 100,,33.2,> 100,13.1,,> 100,46.1,> 100,50.1,> 100,59.8,> 100,35.1 µM,> 100,56.5,35.6,56.5,
O=C(Nc1ccc(F)cc1)c1cc2ccc(O)cc2oc1=Nc1cccc(F)c1,75.4,> 100,> 100,49.7,> 100,> 100,97.5,41.6,> 100,> 100,35.6,> 100,> 100,,,> 100,,,> 100,
N=C(N)c1ccc(-c2ccc(-c3ccc(C(=N)N)cc3)o2)cc1,> 100,> 100,,> 100,> 100,77.5,> 100,> 100,> 100,71.7,33,> 100,57.3,> 100,> 100 µM,74.9,> 100,> 100,87.2,
CC[C@@H]1C[C@@H](O)[C@@H]2[C@H](O)[C@H](O)CN2C1,> 100,> 100,> 100,> 100,> 100,> 100,> 100,> 100,> 100,> 100,> 100,> 100,> 100,> 100,> 100 µM,> 100,> 100,,> 100,
COc1ccc2nc(-c3ccc(O)cc3)cn2c1,> 100,> 100,,> 100,> 100,> 100,> 100,> 100,> 100,> 100,62.6,> 100,> 100,> 100,> 100 µM,> 100,> 100,> 100,,
Clc1ccc(-c2cc(-c3nc4ccccc4[nH]3)no2)cc1,45.5,24.6,33.5,62.1,31,47.9,42.8,67.4,73.1,40.5,34.7,35.8,35,36,44.5 µM,37.7,79.9,,36.4,
O=C1/C(=C/c2cccc3ccccc23)Cc2ccccc21,29.9,,> 100,> 100,38.9,> 100,,> 100,> 100,> 100,> 100,47.2,> 100,64,> 100 µM,,49.6,39.2,,
COc1ccc(C2Oc3c(cccc3OC)C=C2[N+](=O)[O-])cc1 (centres undefined),4.32,16.4,,9.3,10.8,6.86,3.02,11.2,> 100,4.37,2.93,15.3,5.66,16.6,,27.7,,2.7,19,
Cc1cc2nc3c(C#N)c(-c4ccccc4)cc(Nc4cccc(C(F)(F)F)c4)n3c2cc1C,> 100,,14.3,,22.5,,30.1,> 100,> 100,50.6,19.8,44,25.2,80.7,72.9 µM,> 100,26.5,22.9,54.3,
CN(C)C1COC2Cc3ccccc3C1O2 (centres undefined),,> 100,> 100,> 100,> 100,> 100,> 100,> 100,> 100,> 100,> 100,> 100,> 100,> 100,83.5 µM and 79.7 µM,> 100,> 100,> 100,> 100,3.16 µM and 11.2 µM
CC1(C)OC([C@H](O)CO)C([C@H]2NCCS2)O1 (some centres undefined),> 100,> 100,> 100,> 100,,> 100,> 100,> 100,> 100,> 100,> 100,> 100,,> 100,> 100 µM,> 100,> 100,> 100,> 100,
Cc1ccc(S(=O)(=O)N/N=C2/CC[C@H](C(C)(C)C)C[C@@H]2C)cc1,29.8,30.3,33.5,30,32.8,31.1,,29.9,> 100,32.8,26.8,36.6,30.4,32.6,39 µM,25.5,28.3,,27,

# — PubChem BioAssay (NCI)
